Experimental findings from patent US20170107207A1, “AMINOPYRAZOLONE DERIVATIVE” (DAIICHI SANKYO COMPANY, LIMITED, priority 2014, published 2017) are described below.

The term GI50 denotes the concentration at which growth is held to half of that of the control. A high value points to less potent growth inhibition.

Assay type in all cases: cell-based
Assay [1] deals with HT-29. The assay is described as follows: Cell growth inhibition test, HT-29. The following applies: Homo sapiens, 72 h; HT-29, Large intestine cancer, 3 days, CellTiter-Glo. Here is the method:
(§1) A cell growth inhibition test was carried out by treating a cultured cancer cell line with a test compound for a given period and then counting the number of viable cells by CellTiter-Glo Luminescent Cell Viability Assay (manufactured by Promega Corp.).
(§2) The following cells were inoculated to a 384-well plate containing the compound prepared in advance at predetermined concentrations. […]
(§3) The cells thus inoculated were cultured at 37° C. for 3 days under 5% CO2. […] Then, luminescence intensity was measured using a plate reader.
(§4) The number of viable cells and luminescence intensity have been confirmed to correlate with each other. Therefore, the rate of cell growth was calculated according to the following expression: Rate of cell growth (T/C %) of a test compound-supplemented well=100×[(B−C)/(A−C)] wherein A represents the luminescence intensity (final culture date) of a test compound-free well; B represents the luminescence intensity (final culture date) of a test compound-containing well; and C represents the luminescence intensity (day of cell inoculation) of a well at the start of contact of the cells with the test compound.
(§5) T/C % at the concentration of each of the serially diluted test compounds was determined. […]

In assay [2] the test system is HCT 116. Kind of assay: Cell growth inhibition test, HCT 116. The following applies: Homo sapiens, 72 h; HCT 116, Large intestine cancer, 3 days, CellTiter-Glo. Here is the method:
as §1, §2, §3, §4, §5
In general terms: In ATP-based viability assays light output follows the ATP content of the culture.

For assay [3], the system named is CALU-6. The assay is described as follows: Cell growth inhibition test, CALU-6. The conditions noted are these: Homo sapiens, 72 h; CALU-6, Lung cancer, 3 days, CellTiter-Glo. Here is the method:
as §1, §2, §3, §4, §5

Assay [4] deals with COLO 205. The assay is described as follows: Cell growth inhibition test, COLO 205. The conditions noted are these: Homo sapiens, 72 h; COLO 205, Large intestine cancer, 3 days, CellTiter-Glo. On the procedure:
as §1, §2, §3, §4, §5

Assay [5] relates to COLO 829. The assay is described as follows: Cell growth inhibition test, COLO 829. The conditions noted are these: Homo sapiens, 72 h; COLO 829, Skin cancer, 3 days, CellTiter-Glo. On the procedure:
as §1, §2, §3, §4, §5

On to `CCOc1cc(F)c(Cl)cc1C(=O)NCC(C)(C)CC(=O)Nc1c(COC)n(C)n(-c2ccccc2)c1=O` [Example 113, 5-Chloro-2-ethoxy-4-fluoro-N-(4-{[5-(methoxymethyl)-1-methyl-3-oxo-2-phenyl-2,3-dihydro-1H-pyrazol-4-yl]amino}-2,2-dimethyl-4-oxobutyl)benzamide], for which the GI50 in assay [1] stood at 920 nM; in assay [2], 230 nM; in assay [3], 680 nM; in assay [4], 720 nM; in assay [5], 350 nM.

`CCOc1ncc(Cl)cc1C(=O)NCC(C)(C)CC(=O)Nc1c([C@H](C)CN(C)C)n(C)n(-c2ccccc2)c1=O` [Example 73, 5-Chloro-N-[4-({5-[(1R)-2-(dimethylamino)-1-methylethyl]-1-methyl-3-oxo-2-phenyl-2,3-dihydro-1H-pyrazol-4-yl}amino)-2,2-dimethyl-4-oxobutyl]-2-ethoxypyridine-3-carboxamide]: the GI50 in assay [1] was found to be 1200 nM; in assay [2], 460 nM; in assay [3], 780 nM; in assay [4], 850 nM; in assay [5] it was 480 nM.

With `CCOc1ccc(Cl)cc1C(=O)NCC(C)(C)CC(=O)Nc1c([C@H](C)CN(C)C)n(C)n(-c2ccccc2)c1=O` [Example 68, 5-Chloro-N-[4-({5-[(1R)-2-(dimethylamino)-1-methylethyl]-1-methyl-3-oxo-2-phenyl-2,3-dihydro-1H-pyrazol-4-yl}amino)-2,2-dimethyl-4-oxobutyl]-2-ethoxybenzamide], the GI50 stood at 510 nM in assay [1]; 180 nM in assay [2]; 430 nM in assay [3]; 310 nM in assay [4]; 200 nM in assay [5].
